Data on one molecule can be found in patent US12582632B2, “Inhibition of neurological injuries due to infections via administration of Butanetap and analogs thereof” (priority 2021, dated 2026).

The subject of data set [1] is immortalized Mouse Microglia (SIM-A9). The experiment in a line: Gingipain cytotoxicity on microglia, AlamarBlue viability. The class given is cell-based. Particulars: 48 hours, between 1 and 10 nM. How it is done: Immortalized Mouse Astrocytes—SV40T (IMA2.1), immortalized Mouse Microglia (SIM-A9) and immortalized neuroblastoma (SH-SY5Y) cells were infected for 48 hours with gingipains HRgpA and RgpB (arginine gingipains), and Kgp (lysine-specific cysteine proteinase—Lys-gingipain, KGP). After 48 hours the cells were assessed for viability with the AlamarBlue assay and the percentage of dead or alive cells versus control was plotted. […] As expected, since neither are dying, […]. […] Therefore, we expect the efficacious buntanetap dose to fight P. gingivalis infection to be the same as to treat Alzheimer's and Parkinson's disease has no impact on the microglia or neuroblastoma survival in the presence of gingipains.
For orientation: Alamar Blue is a resazurin reagent that responds to reducing activity.

For data set [2], the system named is APP, Tau, αSYN and inflammatory markers in CSF. The note with it: MCI subjects, cited from earlier work.

For the molecule `CN1CC[C@]2(C)c3cc(OC(=O)Nc4ccccc4)ccc3N(C)C12` (stereo partly drawn) [butanetap, (3aR)-1,3a,8-trimethyl-1,2,3,3a,8,8a-hexahydropyrrolo[2,3-b]indol-5-yl phenylcarbamate], the “microglia survival in the presence of gingipains” value in data set [1] is on record as “no impact”. Besides, the “levels of APP, Tau, and αSYN in the cerebrospinal fluid (CSF)” value in data set [2] (4×60 mg/day) is on record as “normalized”. In data set [2], the “CSF Aβ42” value is “trend to lower”, the “CSF levels of p-tau” value is on record as “significantly lowered”, the “CSF levels of sAPPα” value is “significantly lowered” and the “CSF levels of sAPPβ” value is recorded as “significantly lowered”. Moreover, in data set [2], the “CSF levels of specific inflammatory markers” value is recorded as “significantly lowered”, the “CSF levels of t-tau” value is “significantly lowered” and the “half-life in CSF” value is over 12 h.
